This passage reports IC50 results from US12435051B2, “Dual modulator of mGluR5 and 5-HT2A receptor, and use thereof” (Vivozon Inc., priority 2020, dated 2025).

The target of one test is T1, mGluR5 (Homo sapiens, UniProt P41594).
T1 construct: expressed in transfected cells; host or cells: HEK293
Kind of test: Fluorescence-based Ca2+ mobilization assay. In kind it is cell-based. Conditions: HEK293 cells overexpressing mGluR5; L-glutamate at EC80. On the procedure: In order to measure the activity on the mGluR5, an experiment was carried out to check the change in the intracellular Ca^2+ level using the HEK293 cell line permanently overexpressing the mGluR5. The cells in the cell culture medium were aliquoted into a 384-well plate coated with poly-D-lysine and cultured in a 37° C. incubator supplied with 5% CO2. The next day, the medium was removed and a dye loading buffer—in which a reagent capable of measuring Ca^2+ was dissolved—was added, and then incubated at 37° C. for 60 minutes. The test compounds were dissolved in 100% DMSO at a final concentration of 10 mM to make a stock solution. The starting concentration of […] was prepared from the stock solution, followed by serial dilutions to prepare working solutions (test compound working solutions). The test compound working solutions were added to the cells that were incubated in the dye loading buffer, which were maintained for 30 minutes at room temperature in a light-shielding state before measurement. The Ca^2+ level change induced by L-glutamate at EC80 concentration was measured for 2 minutes using FLIPR Tetra (MDS Analytical Technologies). The fluorescent Ca^2+ signal values in the presence of the test compounds were normalized to the fluorescent signal elicited by […] concentration of L-glutamate as 100% and that elicited by vehicle as 0% to estimate % inhibition of the test compounds. The efficacy of the test compounds was calculated as IC50 values and represented in Table 1. (+: 1,000-2,000 nM, ++: 500-1,000 nM, +++: 100-500 nM, ++++: less than 100 nM).

The next test concerns the target T2, human 5-HT2AR (Homo sapiens, UniProt P28223).
T2 construct: expressed in transfected cells; host or cells: HEK293
Put plainly: HTRF-based IP1 accumulation assay (5-HT2AR antagonistic effect). The note with it: HEK293 cells overexpressing human 5-HT2AR; serotonin at EC80. In kind it is cell-based. The procedure:
The 5-HT2AR antagonistic effect of the test compounds was confirmed by measuring the production amount of IP1 using the HEK293 cell line permanently overexpressing the human 5-HT2AR. The test compounds were dissolved in 100% DMSO to a final concentration of 10 mM. The starting concentration of 10 μM was prepared from the stock solution, followed by serial dilutions to prepare working solutions in a buffer containing lithium chloride (LiCl). The cells and compounds prepared in the test buffer were placed in a 96-well plate and incubated at room temperature for 10 minutes. Serotonin of EC80 concentration was added, followed by incubation at 37° C. for 30 minutes in a light-shielding state. To measure IP1 accumulation in cells, JP1-d2 acceptor and IP1-Cryptate donor-which are HTRF-based substances for fluorescence signals-were added and incubated for 1 hour at room temperature in a light-shielded state. The fluorescent emission signals of acceptor and donor were detected, and HTRF ratio values were substracted by mean value of serotonin control. The percentage of activation was calculated by normalization of the serotonin control (0%) and IP1 control (100%). The IC50 values of the test compounds are represented in Table 1. (+: 1,000-2,000 nM, ++: 500-1,000 nM, +++: 100-500 nM, ++++: less than 100 nM).
Background: In TR-FRET formats the signal depends on donor and acceptor labels being close together.

T1 sequence (P41594 21-1212): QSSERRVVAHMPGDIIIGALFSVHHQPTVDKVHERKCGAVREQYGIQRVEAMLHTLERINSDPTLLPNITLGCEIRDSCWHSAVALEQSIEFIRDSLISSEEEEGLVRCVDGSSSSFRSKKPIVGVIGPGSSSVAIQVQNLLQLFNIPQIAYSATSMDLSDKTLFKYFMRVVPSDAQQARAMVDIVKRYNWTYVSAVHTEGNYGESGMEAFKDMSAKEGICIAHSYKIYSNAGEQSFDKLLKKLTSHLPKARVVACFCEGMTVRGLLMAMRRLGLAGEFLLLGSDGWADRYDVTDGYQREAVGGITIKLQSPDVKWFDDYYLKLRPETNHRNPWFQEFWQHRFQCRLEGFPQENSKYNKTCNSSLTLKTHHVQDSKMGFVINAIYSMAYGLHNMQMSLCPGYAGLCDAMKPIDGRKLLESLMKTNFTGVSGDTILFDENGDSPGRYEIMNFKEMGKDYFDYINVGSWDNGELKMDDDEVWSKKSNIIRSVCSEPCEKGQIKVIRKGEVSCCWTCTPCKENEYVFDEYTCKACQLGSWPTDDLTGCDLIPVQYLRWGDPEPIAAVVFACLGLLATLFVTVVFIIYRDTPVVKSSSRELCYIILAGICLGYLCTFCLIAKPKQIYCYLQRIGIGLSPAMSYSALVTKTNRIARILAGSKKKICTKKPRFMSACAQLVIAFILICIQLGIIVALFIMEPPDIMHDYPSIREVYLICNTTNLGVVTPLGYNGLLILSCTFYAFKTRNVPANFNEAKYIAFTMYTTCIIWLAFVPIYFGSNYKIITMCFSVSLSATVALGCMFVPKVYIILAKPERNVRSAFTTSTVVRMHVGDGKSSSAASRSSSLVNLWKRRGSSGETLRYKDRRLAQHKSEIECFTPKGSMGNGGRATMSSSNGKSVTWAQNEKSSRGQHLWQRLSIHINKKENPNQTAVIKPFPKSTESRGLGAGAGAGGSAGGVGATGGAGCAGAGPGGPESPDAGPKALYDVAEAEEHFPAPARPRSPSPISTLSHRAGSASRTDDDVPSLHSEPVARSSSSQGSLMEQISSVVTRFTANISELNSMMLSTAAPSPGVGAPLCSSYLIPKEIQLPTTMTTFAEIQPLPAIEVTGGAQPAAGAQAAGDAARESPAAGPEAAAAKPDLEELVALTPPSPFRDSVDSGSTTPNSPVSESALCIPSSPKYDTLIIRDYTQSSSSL
T2 sequence (P28223 whole entry): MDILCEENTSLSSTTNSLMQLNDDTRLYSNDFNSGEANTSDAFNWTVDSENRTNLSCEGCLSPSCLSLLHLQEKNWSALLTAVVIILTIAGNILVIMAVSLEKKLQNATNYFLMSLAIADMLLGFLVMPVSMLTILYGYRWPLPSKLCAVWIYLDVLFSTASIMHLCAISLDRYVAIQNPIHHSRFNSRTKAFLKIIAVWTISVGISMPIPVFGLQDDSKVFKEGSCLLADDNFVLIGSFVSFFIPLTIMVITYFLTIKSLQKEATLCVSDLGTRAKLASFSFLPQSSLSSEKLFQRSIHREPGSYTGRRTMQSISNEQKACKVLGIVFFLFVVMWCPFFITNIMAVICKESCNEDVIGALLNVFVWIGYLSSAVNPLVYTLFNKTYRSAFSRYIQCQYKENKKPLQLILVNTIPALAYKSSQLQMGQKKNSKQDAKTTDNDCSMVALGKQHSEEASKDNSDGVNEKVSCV

With `O=C(NCC1CCCCO1)c1ccc(C#Cc2ccccc2F)cc1` (stereo not shown) [Example 54, 4-((2-fluorophenyl)ethynyl)-N-((tetrahydro-2H-pyran-2-yl)methyl)benzamide], the results for the IC50 at mGluR5 and on human 5-HT2AR were below 100 nM and 100 to 500 nM, respectively.
Taken in the same sequence, the figures for `O=C(NCC1(O)CCC1)c1ccc(C#Cc2ccccc2F)cc1` [Example 57, 4-((2-fluorophenyl)ethynyl)-N-((1-hydroxycyclobutyl)methyl)benzamide] were below 100 nM and 500 to 1000 nM.
Taken in the same sequence, the figures for `COC(=O)CCC1(CNC(=O)c2ccc(C#Cc3ccccc3F)cc2)CCCCC1` [Example 59, methyl 3-(1-((4-((2-fluorophenyl)ethynyl)benzamido)methyl)cyclohexyl)propanoate] were 100 to 500 nM and 500 to 1000 nM.
For `O=C(O)CCC1(CNC(=O)c2ccc(C#Cc3ccccc3F)cc2)CCOCC1` [Example 60, 3-(4-((4-((2-fluorophenyl)ethynyl)benzamido)methyl)tetrahydro-2H-pyran-4-yl)propanoic acid], the IC50 at mGluR5 and against human 5-HT2AR was 500 to 1000 nM in each case.
In the case of `O=C(O)CCC1(CNC(=O)c2ccc(C#Cc3ccccc3F)cc2)CCCCC1` [Example 61, 3-(1-((4-((2-fluorophenyl)ethynyl)benzamido)methyl)cyclohexyl)propanoic acid], the IC50 on mGluR5 fell in the range of 1000 to 2000 nM; at human 5-HT2AR, 500 to 1000 nM.
In the same order, the values of `O=C(NCC1(CCCO)CCCCC1)c1ccc(C#Cc2ccccc2F)cc1` [Example 62, 4-((2-fluorophenyl)ethynyl)-N-((1-(3-hydroxypropyl)cyclohexyl)methyl)benzamide] are 100 to 500 nM and 1000 to 2000 nM.
Taken in the same sequence, the figures for `CC1(C)CC(CNC(=O)c2ccc(C#Cc3ccccc3F)cc2)CCO1` (stereo not shown) [Example 67, N-((2,2-dimethyltetrahydro-2H-pyran-4-yl)methyl)-4-((2-fluorophenyl)ethynyl)benzamide] were 100 to 500 nM and 500 to 1000 nM.
Regarding `[2H]C([2H])(NC(=O)c1ccc(C#Cc2ccccc2F)cc1)C1CCOCC1` [Example 68, 4-((2-fluorophenyl)ethynyl)-N-((tetrahydro-2H-pyran-4-yl)methyl-d2)benzamide], the IC50 was 100 to 500 nM at mGluR5 and 500 to 1000 nM against human 5-HT2AR.
In the same order, the values of `CC1(C)CC(CNC(=O)c2ccc(C#Cc3ccccc3F)cc2)CO1` (stereo not shown) [Example 70, N-((5,5-dimethyltetrahydrofuran-3-yl)methyl)-4-((2-fluorophenyl)ethynyl)benzamide] are 100 to 500 nM and 500 to 1000 nM.
As to `O=C(NCC1CCCO1)c1ccc(C#Cc2ccccc2F)cc1` (stereo not shown) [Example 71, 4-((2-fluorophenyl)ethynyl)-N-((tetrahydrofuran-2-yl)methyl)benzamide], the IC50 is below 100 nM against mGluR5 and 500 to 1000 nM at human 5-HT2AR.
In the same order, the values of `O=C(NCC1(F)CCCCC1)c1ccc(C#Cc2ccc(F)cc2F)cc1` [Example 73, 4-((2,4-difluorophenyl)ethynyl)-N-((1-fluorocyclohexyl)methyl)benzamide] are below 100 nM and 1000 to 2000 nM.
Taken in the same sequence, the figures for `COC(=O)CC1(CNC(=O)c2ccc(C#Cc3ccccc3F)cc2)CCCCC1` [Example 74, methyl 2-(1-((4-((2-fluorophenyl)ethynyl)benzamido)methyl)cyclohexyl)acetate] were 100 to 500 nM and 500 to 1000 nM.
In the same order, the values of `COC(=O)CC1(CNC(=O)c2ccc(C#Cc3ccccc3F)cc2)CCOCC1` [Example 75, methyl 2-(4-((4-((2-fluorophenyl)ethynyl)benzamido)methyl)tetrahydro-2H-pyran-4-yl)acetate] are 100 to 500 nM and 500 to 1000 nM.
Consider `O=C(O)CC1(CNC(=O)c2ccc(C#Cc3ccccc3F)cc2)CCCCC1` [Example 76, 2-(1-((4-((2-fluorophenyl)ethynyl)benzamido)methyl)cyclohexyl)acetic acid], for which the IC50 against mGluR5 lay in the range of 500 to 1000 nM; against human 5-HT2AR, 100 to 500 nM.
For `NC(=O)CC1(CNC(=O)c2ccc(C#Cc3ccccc3F)cc2)CCCCC1` [Example 77, N-((1-(2-amino-2-oxoethyl)cyclohexyl)methyl)-4-((2-fluorophenyl)ethynyl)benzamide], the IC50 at mGluR5 is below 100 nM; at human 5-HT2AR, 1000 to 2000 nM.
`NC(=O)CC1(CNC(=O)c2ccc(C#Cc3ccccc3F)cc2)CCOCC1` [Example 78, N-((4-(2-amino-2-oxoethyl)tetrahydro-2H-pyran-4-yl)methyl)-4-((2-fluorophenyl)ethynyl)benzamide]: the IC50 was 100 to 500 nM against mGluR5 and 1000 to 2000 nM on human 5-HT2AR.
As for `O=C(CC1(CNC(=O)c2ccc(C#Cc3ccccc3F)cc2)CCCCC1)NO` [Example 79, 4-((2-fluorophenyl)ethynyl)-N-((1-(2-(hydroxyamino)-2-oxoethyl)cyclohexyl)methyl)benzamide], the results for the IC50 at mGluR5 and on human 5-HT2AR were 100 to 500 nM and 1000 to 2000 nM, respectively.
In the same order, the values of `CNC(=O)CC1(CNC(=O)c2ccc(C#Cc3ccccc3F)cc2)CCCCC1` [Example 80, 4-((2-fluorophenyl)ethynyl)-N-((1-(2-(methylamino)-2-oxoethyl)cyclohexyl)methyl)benzamide] are 100 to 500 nM and 100 to 500 nM.
On to `CN(C)C(=O)CC1(CNC(=O)c2ccc(C#Cc3ccccc3F)cc2)CCCCC1` [Example 81, N-((1-(2-(dimethylamino)-2-oxoethyl)cyclohexyl)methyl)-4-((2-fluorophenyl)ethynyl)benzamide], for which the IC50 against mGluR5 lay in the range of 500 to 1000 nM; against human 5-HT2AR, 100 to 500 nM.
In the same order, the values of `CC1(CNC(=O)c2ccc(C#Cc3ccccc3F)c(F)c2)COC1` [Example 84, 3-fluoro-4-((2-fluorophenyl)ethynyl)-N-((3-methyloxetan-3-yl)methyl)benzamide] are 1000 to 2000 nM and 1000 to 2000 nM.
In the same order, the values of `O=C(NC[C@H]1C[C@@H](O)C1)c1ccc(C#Cc2ccccc2F)cc1` [Example 85, 4-((2-fluorophenyl)ethynyl)-N-(((1s,3s)-3-hydroxycyclobutyl)methyl)benzamide] are 100 to 500 nM and 500 to 1000 nM.
In the same order, the values of `O=C(NC[C@H]1C[C@H](O)C1)c1ccc(C#Cc2ccccc2F)cc1` [Example 86, 4-((2-fluorophenyl)ethynyl)-N-(((1r,3r)-3-hydroxycyclobutyl)methyl)benzamide] are 100 to 500 nM and 1000 to 2000 nM.
As to `O=C(NCC1CC(F)(F)C1)c1ccc(C#Cc2ccccc2)cc1` [Example 90, N-((3,3-difluorocyclobutyl)methyl)-4-(phenylethynyl)benzamide], the IC50 against mGluR5 was below 100 nM; at human 5-HT2AR, 100 to 500 nM.
Taken in the same sequence, the figures for `O=C(NC[C@@H]1CCCOC1)c1ccc(C#Cc2ccccc2F)cc1` [Example 91, (S)-4-((2-fluorophenyl)ethynyl)-N-((tetrahydro-2H-pyran-3-yl)methyl)benzamide] were below 100 nM and 1000 to 2000 nM.
Taken in the same sequence, the figures for `O=C(NC[C@@H]1CCOC1)c1ccc(C#Cc2ccccc2F)cc1` [Example 93, (S)-4-((2-fluorophenyl)ethynyl)-N-((tetrahydrofuran-3-yl)methyl)benzamide] were 100 to 500 nM and 100 to 500 nM.
Taken in the same sequence, the figures for `[2H]C(NC(=O)c1ccc(C#Cc2ccccc2F)cc1)C1(C)COC1` (stereo not shown) [Example 95, 4-((2-fluorophenyl)ethynyl)-N-((3-methyloxetan-3-yl)methyl-d)benzamide] were below 100 nM and 500 to 1000 nM.

As usually defined, the IC50 is the concentration needed to halve the response being measured. A lower IC50 goes with inhibition by little substance.
